# Experimental data reported in ChEMBL document CHEMBL4382244, “QSAR of 1,4-benzoxazin-3-one antimicrobials and their drug design perspectives” (2018).
# Columns and labels:
# Format in all cases: functional
# [1] = tested on: Candida albicans; test: Antifungal activity against Candida albicans after 24 hrs by spectrophotometric method
# [2] = tested on: Candida albicans; test: Antifungal activity against Candida albicans after 24 hrs by disk diffusion method
# [3] = tested on: Escherichia coli; test: Antibacterial activity against Escherichia coli ATCC 25922 after 24 hrs by disk diffusion method; settings: ATCC 25922, 24 h
# [4] = tested on: Staphylococcus aureus; test: Antibacterial activity against Staphylococcus aureus ATCC 25923 after 24 hrs by disk diffusion method; settings: ATCC 25923, 24 h
# [5] = tested on: Escherichia coli; test: Antibacterial activity against Escherichia coli ATCC 25922 after 16 to 20 hrs by microdilution method
# [6] = tested on: Enterococcus faecalis; test: Antibacterial activity against Enterococcus faecalis ATCC 29212 after 16 to 20 hrs by microdilution method
# [7] = tested on: Staphylococcus aureus; test: Antibacterial activity against Staphylococcus aureus ATCC 29213 after 16 to 20 hrs by microdilution method
# [8] = tested on: Bacillus subtilis; test: Antibacterial activity against Bacillus subtilis
# [9] = tested on: Pseudomonas aeruginosa; test: Antibacterial activity against Pseudomonas aeruginosa
# [10] = tested on: Escherichia coli; test: Antibacterial activity against Escherichia coli
# [11] = tested on: Staphylococcus aureus; test: Antibacterial activity against Staphylococcus aureus
# [12] = tested on: Candida albicans; test: Antifungal activity against Candida albicans
# [13] = tested on: Pseudomonas aeruginosa; test: Antibacterial activity against Pseudomonas aeruginosa ATCC 10145 after 16 to 20 hrs by microdilution method
# [14] = tested on: Klebsiella pneumoniae; test: Antibacterial activity against Klebsiella pneumoniae RSKK 576 after 16 to 20 hrs by microdilution method
# [15] = tested on: Saccharomyces cerevisiae; test: Antifungal activity against Saccharomyces cerevisiae ATCC 9763 by micro-dilution method
# [16] = tested on: Candida albicans; test: Antifungal activity against Candida albicans CA-6 by micro-dilution method
# [17] = tested on: Pichia kudriavzevii; test: Antifungal activity against Candida krusei ATCC 6258 by micro-dilution method
SMILES,MIC [1] [µM],MIC [2] [µM],MIC [4] [µM],MIC [5] [µM],MIC [6] [µM],MIC [7] [µM],MIC [13] [µM],MIC [14] [µM],also measured
O=C1COc2ccccc2N1O,2120,2020,2020,–,–,–,–,–,MIC [3]: 7570 µM
COc1ccc2c(c1)OC(O)C(=O)N2O (stereo not given),2370,2370,1580,–,–,–,–,–,MIC [3]: 3150 µM
COc1ccc2c(c1)OCC(=O)N2O,768,850,3410,–,–,–,–,–,MIC [3]: 6400 µM
COC1Oc2ccccc2N(O)C1=O (stereo not given),3330,3410,2560,–,–,–,–,–,–
CCOC(=O)CC1Oc2ccc(C)cc2NC1=O (stereo not given),–,–,–,457,457,914,457,457,MIC [8]: 89.2 µM; MIC [9]: 178 µM; MIC [10]: 89.2 µM; MIC [11]: 89.2 µM; MIC [12]: 89.2 µM
N#Cc1ccc2c(c1)OC(O)C(=O)N2O (stereo not given),–,7280,7280,–,–,–,–,–,–
CCOC(=O)CC1Oc2cc([N+](=O)[O-])ccc2NC1=O (stereo not given),–,–,–,–,–,–,–,–,MIC [8]: 241 µM; MIC [9]: 121 µM; MIC [10]: 241 µM; MIC [11]: 121 µM; MIC [12]: 121 µM
CCOC(=O)CC1Oc2cccc([N+](=O)[O-])c2NC1=O (stereo not given),–,–,–,457,457,914,457,457,–
CCOC(=O)CC1Oc2ccc(C(O)Cn3ccnc3)cc2N(C)C1=O (stereo not given),–,–,–,–,–,–,–,–,MIC [15]: 19.6 µM; MIC [16]: 39.2 µM; MIC [17]: 39.2 µM
CCOC(=O)CC1Oc2cccc(C)c2NC1=O (stereo not given),–,–,–,1030,1030,1030,1030,1030,–
CCOC(=O)CC1Oc2cc(N)ccc2NC1=O (stereo not given),–,–,–,1030,1030,1030,1030,1030,MIC [8]: 201 µM; MIC [9]: 201 µM; MIC [10]: 201 µM; MIC [11]: 201 µM; MIC [12]: 100 µM
O=C(O)CC1Oc2ccccc2NC1=O (stereo not given),–,–,–,1090,1090,1090,544,1090,MIC [8]: 212 µM; MIC [9]: 212 µM; MIC [10]: 212 µM; MIC [11]: 106 µM; MIC [12]: 106 µM
CCOC(=O)CC1Oc2cc(C)ccc2NC1=O (stereo not given),–,–,–,–,–,–,–,–,MIC [8]: 303 µM; MIC [9]: 151 µM; MIC [10]: 151 µM; MIC [11]: 303 µM
COc1ccc2c(c1)OC(O)C(=O)N2 (stereo not given),5120,–,–,–,–,–,–,–,–
CCOC(=O)CC1Oc2ccc(Cl)cc2NC1=O (stereo not given),–,–,–,949 to 1030,949 to 1030,949 to 1030,949 to 1030,949 to 1030,MIC [8]: 201 µM; MIC [9]: 100 µM; MIC [10]: 100 µM; MIC [11]: 201 µM; MIC [12]: 100 µM
CCOC(=O)CC1Oc2ccc(C(=O)OCC)cc2NC1=O (stereo not given),–,–,–,407,407,814,407,407,MIC [8]: 79.4 µM; MIC [9]: 159 µM; MIC [10]: 79.4 µM; MIC [11]: 159 µM; MIC [12]: 39.7 µM

SMILES,MIC [1] [µM],MIC [2] [µM],MIC [4] [µM],MIC [5] [µM],MIC [6] [µM],MIC [7] [µM],MIC [13] [µM],MIC [14] [µM],also measured
CCOC(=O)CC1Oc2ccc(F)cc2NC1=O (stereo not given),–,–,–,1010,1010,1010,1010,1010,–
COC(=O)c1ccc2c(c1)OC(O)C(=O)N2 (stereo not given),4480,–,–,–,–,–,–,–,–
Cc1ccc2c(c1)OCC(=O)N2O,1950,1860,1860,–,–,–,–,–,MIC [3]: 2790 µM
Cc1ccc2c(c1)OC(O)C(=O)N2O (stereo not given),–,3410,2560,–,–,–,–,–,MIC [3]: 3410 µM
O=C1C(O)Oc2cc([N+](=O)[O-])ccc2N1O (stereo not given),–,6630,734,–,–,–,–,–,MIC [3]: 3680 µM
CCOC(=O)CC1Oc2ccc(-c3ccccc3)cc2NC1=O (stereo not given),–,–,–,411,206,411,411,411,–
CC(=O)ON1C(=O)C(O)Oc2ccccc21 (stereo not given),2980,–,–,–,–,–,–,–,–
CCOC(=O)CC1Oc2ccc(S(=O)(=O)CC)cc2NC1=O (stereo not given),–,–,–,391,391,782,391,391,–
CCOC(=O)CC1Oc2ccc(C(Cn3ccnc3)OCc3ccc(Cl)cc3)cc2N(C)C1=O (stereo not given),–,–,–,–,–,–,–,–,MIC [15]: 915 µM; MIC [16]: 915 µM; MIC [17]: 114 µM
CCOC(=O)CC1Oc2cc([N+](=O)[O-])ccc2N(C)C1=O (stereo not given),–,–,–,949,949,949,949,949,MIC [8]: 185 µM; MIC [9]: 92.7 µM; MIC [10]: 92.7 µM; MIC [11]: 185 µM; MIC [12]: 46.4 µM
CCOC(=O)CC1Oc2ccc([N+](=O)[O-])cc2NC1=O (stereo not given),–,–,–,457,457,914,457,457,–
O=C1COc2ccccc2N1,6700,–,–,–,–,–,–,–,–
O=C1C(O)Oc2ccccc2N1O (stereo not given),3680,3680,2760,–,–,–,–,–,MIC [3]: 6900 µM
O=C1COc2cc(F)ccc2N1O [7-F-D-DIBOA],2730,2730,1820,–,–,–,–,–,MIC [3]: 4550 µM
COC(=O)c1ccc2c(c1)OCC(=O)N2O [7-MeOCO-D-DIBOA],–,–,4480,–,–,–,–,–,–
